Test results as given in US12428422B2, “Purine derivatives as SIK-3 inhibitors” (RHIZEN PHARMACEUTICALS AG, priority 2020, dated 2025).

Experiments:
[1] = target: 6 isoform of PI3K (Homo sapiens, UniProt O00329); assay: Activity against PI3K delta isoform (printed "6"); settings: independently synthesized compound
[2] = target: y isoform of PI3K (Homo sapiens, UniProt P48736); assay: Activity against PI3K gamma isoform (printed "y" / "7"); settings: independently synthesized compound
[3] = test system: TNFα; assay: TNFα levels in LPS-stimulated human macrophages by ELISA; type: cell-based; settings: LPS (1 μg/mL) stimulated human macrophages, supernatant after 4 hours
Experimental: Assay 3: TNFα Levels in LPS-Stimulated (1 μg/ml) Human Macrophages Following Treatment with Compound M1 was Estimated by ELISA.
Isolation of Human PBMCs (Peripheral Blood Mononuclear Cells)
The second layer from the top, the buffy coat, was collected carefully with a serological pipette and placed in a new 50 ml centrifuge tube. The volume was made up to 50 mL with 1×PBS and centrifuged at 250×g for 10 min at room temperature. • The supernatant was discarded and red blood cells (RBCs) were resuspended with 5 mL ACK lysis buffer to facilitate RBC lysis and left at room temperature for 5 min. The tube was filled up with 1×PBS and centrifuged at 250×g for 10 min at room temperature. • The supernatant was discarded and the pellet was re-suspended in 5 mL of RPMI complete media. • Cells were counted on a haemocytometer. […] Assay Protocol • Cells were scraped and centrifuged at 250×g for 8 mins and cell concentration was determined. • 0.2×10^6 human macrophages were plated/well in a 96-well plate in RPMI CM with 50 ng/mL of Human M-CSF-1 and incubated overnight at 37° C. and 5% CO2. • Human macrophages were treated with compound M1 for 1 hour followed by addition of LPS (1 μg/mL).
Fold change was calculated, and graphs were plotted using GraphPad Prism. TNFα cytokine levels measured in LPS stimulated human macrophages supernatants were reduced by 75% following treatment with compound M1.

[4] = test system: MDA-MB-231 cell lines; assay: MTT cell growth inhibition, combination with taxol, MDA-MB-231; type: cell-based; settings: combined with taxol, 72 hrs
Experimental: (§1) Assay 6: Combination of Compound M1 with Standard Agents in Different Cell Lines
(§2) Day 0 • The cells were pelleted and counted. • Cells were plated at desired density (100 μl/well) in complete media in a 96-well plate in triplicates. A column for Day “0” reading was also seeded. (18-20 hrs after initial plating and before addition of the inhibitors) • Plates were incubated at 37° C. and 5% CO2. Day 1 • 10 μl of MTT (5 mg/ml) were added to the column designated for Day “0”. It was mixed well and incubated at 37° C. and 5% CO2 for 3.5 h. Cells were pelleted down at 4000 rpm for 10 minutes. • Media was aspirated out and 150 μl of DMSO were added to the cells and mixed by pipetting to dissolve the crystals • The plate was read at A560 nm and A640 nm. Day 2 • A series of dilutions of the inhibitors were initially made in 100% DMSO and further diluted in growth medium. • Cells were treated with either single agent of DMSO, compound M1, taxol, and a combination of compound M1 and taxol (MDA-MB-231, MCF-7, ZR.75.1 and SK-OV-3). […] Crystals were dissolved by repeated pipetting. • The plate was read at A560 nm and A640 nm. […]
(§3) Reference absorbance values were subtracted from test absorbance values. Day 0 values were subtracted from final day absorbance values for determining cell growth. % Cell growth inhibitions were calculated.

[5] = test system: MCF-7 cell lines; assay: MTT cell growth inhibition, combination with taxol, MCF-7; type: cell-based; settings: combined with taxol, 72 hrs
Experimental: as §1, §2, §3

[6] = test system: SK-OV-3 cell lines; assay: MTT cell growth inhibition, combination with taxol, SK-OV-3; type: cell-based; settings: combined with taxol, 72 hrs
Experimental: as §1, §2, §3

[7] = test system: OVCAr-3 cell lines; assay: MTT cell growth inhibition, combination with talzoparib, OVCAR-3; type: cell-based; settings: combined with talzoparib, 72 hrs
Experimental: Assay 5: Combination of Compound M1 with Standard Agents in Different Cell Lines
Day 0 • The cells were pelleted and counted. • Cells were plated at desired density (100 μl/well) in complete media in a 96-well plate in triplicates. A column for Day “0” reading was also seeded. (18-20 hrs after initial plating and before addition of the inhibitors) • Plates were incubated at 37° C. and 5% CO2. Day 1 • 10 μl of MTT (5 mg/ml) were added to the column designated for Day “0”. It was mixed well and incubated at 37° C. and 5% CO2 for 3.5 h. Cells were pelleted down at 4000 rpm for 10 minutes. • Media was aspirated out and 150 μl of DMSO were added to the cells and mixed by pipetting to dissolve the crystals • The plate was read at A560 nm and A640 nm. Day 2 • A series of dilutions of the inhibitors were initially made in 100% DMSO and further diluted in growth medium. • Cells were treated with either single agent of DMSO, compound M1, talzoparib, and combination of compound M1 and talzoparib (OVCAr-3 and SK-OV-3). […]
The plate was read at A560 nm and A640 nm.
as §3

Sequence of y isoform of PI3K (P48736 whole entry, canonical isoform): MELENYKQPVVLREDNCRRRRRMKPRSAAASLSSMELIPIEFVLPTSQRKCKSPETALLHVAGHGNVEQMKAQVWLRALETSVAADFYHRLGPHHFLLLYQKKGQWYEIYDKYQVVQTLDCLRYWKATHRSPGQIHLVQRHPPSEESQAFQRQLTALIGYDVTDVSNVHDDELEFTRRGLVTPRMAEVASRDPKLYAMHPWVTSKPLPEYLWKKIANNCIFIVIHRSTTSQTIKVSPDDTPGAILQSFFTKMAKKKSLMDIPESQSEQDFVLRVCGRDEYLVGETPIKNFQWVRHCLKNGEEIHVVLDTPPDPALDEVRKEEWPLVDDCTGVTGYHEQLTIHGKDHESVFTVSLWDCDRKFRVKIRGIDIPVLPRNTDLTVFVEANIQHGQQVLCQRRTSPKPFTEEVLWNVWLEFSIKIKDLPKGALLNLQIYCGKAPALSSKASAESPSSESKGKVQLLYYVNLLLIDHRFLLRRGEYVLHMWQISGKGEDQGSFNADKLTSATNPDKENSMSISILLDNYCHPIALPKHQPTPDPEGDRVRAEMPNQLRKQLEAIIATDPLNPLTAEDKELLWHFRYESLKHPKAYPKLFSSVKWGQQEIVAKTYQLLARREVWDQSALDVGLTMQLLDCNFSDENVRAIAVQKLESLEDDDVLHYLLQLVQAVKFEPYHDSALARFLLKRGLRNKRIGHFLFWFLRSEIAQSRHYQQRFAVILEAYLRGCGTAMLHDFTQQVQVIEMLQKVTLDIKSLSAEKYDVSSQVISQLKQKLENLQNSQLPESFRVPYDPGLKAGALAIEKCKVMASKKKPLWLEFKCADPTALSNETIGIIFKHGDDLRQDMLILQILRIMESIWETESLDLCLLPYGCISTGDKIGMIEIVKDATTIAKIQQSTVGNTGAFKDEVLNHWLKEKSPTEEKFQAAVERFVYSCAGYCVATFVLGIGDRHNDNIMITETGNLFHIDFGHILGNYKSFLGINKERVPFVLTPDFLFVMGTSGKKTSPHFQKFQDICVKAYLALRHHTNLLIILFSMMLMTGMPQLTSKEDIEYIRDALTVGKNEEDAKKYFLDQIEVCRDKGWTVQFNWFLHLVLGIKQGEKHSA
Sequence of 6 isoform of PI3K (O00329 whole entry, canonical isoform): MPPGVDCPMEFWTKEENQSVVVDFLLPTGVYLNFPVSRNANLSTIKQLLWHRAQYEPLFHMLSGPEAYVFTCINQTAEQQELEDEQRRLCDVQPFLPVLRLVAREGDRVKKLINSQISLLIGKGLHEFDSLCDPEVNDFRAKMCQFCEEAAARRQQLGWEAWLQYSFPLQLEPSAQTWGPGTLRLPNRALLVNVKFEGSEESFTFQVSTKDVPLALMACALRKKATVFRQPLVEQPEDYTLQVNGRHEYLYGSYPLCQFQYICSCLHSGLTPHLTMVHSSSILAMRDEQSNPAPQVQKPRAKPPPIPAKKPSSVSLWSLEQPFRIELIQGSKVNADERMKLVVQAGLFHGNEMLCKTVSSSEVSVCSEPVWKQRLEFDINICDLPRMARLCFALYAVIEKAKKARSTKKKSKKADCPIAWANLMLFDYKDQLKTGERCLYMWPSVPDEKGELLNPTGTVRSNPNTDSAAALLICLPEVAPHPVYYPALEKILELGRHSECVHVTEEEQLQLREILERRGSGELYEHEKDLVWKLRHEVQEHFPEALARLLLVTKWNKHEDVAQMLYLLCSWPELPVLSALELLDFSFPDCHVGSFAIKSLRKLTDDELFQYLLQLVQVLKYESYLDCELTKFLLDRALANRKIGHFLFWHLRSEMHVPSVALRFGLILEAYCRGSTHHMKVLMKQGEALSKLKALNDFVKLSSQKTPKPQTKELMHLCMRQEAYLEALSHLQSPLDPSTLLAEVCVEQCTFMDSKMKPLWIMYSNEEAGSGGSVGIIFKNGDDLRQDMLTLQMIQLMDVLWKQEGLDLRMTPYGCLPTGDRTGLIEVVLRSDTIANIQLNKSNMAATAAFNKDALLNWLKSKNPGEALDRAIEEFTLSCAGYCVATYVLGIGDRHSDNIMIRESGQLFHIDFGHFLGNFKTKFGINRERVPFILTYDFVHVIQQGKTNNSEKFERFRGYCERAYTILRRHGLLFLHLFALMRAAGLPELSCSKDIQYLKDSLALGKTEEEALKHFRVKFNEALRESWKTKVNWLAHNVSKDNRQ
Sequence of 6 isoform of PI3K (P27986 whole entry partner, canonical isoform): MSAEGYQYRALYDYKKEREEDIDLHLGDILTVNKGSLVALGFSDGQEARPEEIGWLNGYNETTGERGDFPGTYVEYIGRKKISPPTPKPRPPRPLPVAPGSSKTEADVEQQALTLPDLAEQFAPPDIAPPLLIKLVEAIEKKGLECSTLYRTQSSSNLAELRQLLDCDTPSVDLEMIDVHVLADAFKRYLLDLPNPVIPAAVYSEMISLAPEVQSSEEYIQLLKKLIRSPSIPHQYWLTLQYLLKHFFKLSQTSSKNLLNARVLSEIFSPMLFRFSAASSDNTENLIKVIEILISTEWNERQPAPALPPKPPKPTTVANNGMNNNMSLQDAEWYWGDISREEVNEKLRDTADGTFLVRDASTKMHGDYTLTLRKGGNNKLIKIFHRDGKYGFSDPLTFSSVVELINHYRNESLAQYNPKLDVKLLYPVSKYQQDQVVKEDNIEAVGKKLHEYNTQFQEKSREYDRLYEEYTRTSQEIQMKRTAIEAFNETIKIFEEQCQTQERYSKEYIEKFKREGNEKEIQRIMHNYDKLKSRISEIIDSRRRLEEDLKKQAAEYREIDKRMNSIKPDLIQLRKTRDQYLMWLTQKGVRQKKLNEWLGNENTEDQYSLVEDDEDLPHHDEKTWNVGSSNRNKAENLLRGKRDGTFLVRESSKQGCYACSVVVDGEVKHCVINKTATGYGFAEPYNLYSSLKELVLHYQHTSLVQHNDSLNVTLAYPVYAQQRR

Which results are given for `CC[C@H](Nc1ncnc2[nH]c(O)nc12)c1oc2ccccc2c(=O)c1-c1cccc(F)c1` [Compound M1, (S)-3-(3-fluorophenyl)-2-(1-((8-hydroxy-9H-purin-6-yl)amino)propyl)-4H-chromen-4-one]?
activity against the 6 isoform of PI3K [1]: inactive; activity against the y isoform of PI3K [2]: inactive; reduction of TNFα cytokine levels in supernatants [3]: 75%; cell growth inhibition in combination [4]: synergistic results; cell growth inhibition in combination [5]: synergistic results; cell growth inhibition in combination [6]: synergistic results; cell growth inhibition in combination [7]: synergistic results
